Reference: US20020137929A1, “1 - (3-heterocyclylphenyl) isothiourea, -isourea, -guanidine and -amidine herbicidal agents” (Intellectual Property Department, BASF Aktiengesellschaft, priority 1998, published 2002)

Tests used:
ECHCG (Barnyardgrass) [1] = experiment: Postemergence herbicidal evaluation; assay type: in vivo, Echinochloa crus-galli
Method in brief: (§1)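 Two-week seedlings sprayed postemergence at 40 psi; formulation: 1:1 acetone/water, 0.5% TWEEN 20; application ≈0.0156–0.500 kg/ha. Greenhouse grow-out, then 0–9 visual scoring at 4–5 weeks.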

[2] = system: TRZAWR (Wheat, Winter, cv Riband); experiment: Preemergence herbicidal evaluation; assay type: in vivo, Triticum aestivum; conditions: rated 4-5 weeks after treatment
Method in brief: (§2)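 Seeds were mixed with potting soil and planted on about one inch of soil, then sprayed with test compound in aqueous acetone at about 0.0156 to 0.500 kg per hectare. Plants grew under standard greenhouse care and were visually rated 0-9 against untreated controls 4-5 weeks post-treatment.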

[3] = system: IPOHE (Morningglory, Ivyleaf); experiment: Preemergence herbicidal evaluation; assay type: in vivo, Ipomoea hederacea; conditions: rated 4-5 weeks after treatment
Method in brief: as §2

[4] = system: GLXMAW (Soybean, Williams); experiment: Preemergence herbicidal evaluation; assay type: in vivo, Glycine max, (L.) Merr. cv Williams; conditions: rated 4-5 weeks after treatment
Method in brief: as §2

CYPIR (Rice Flatsedge) = experiment: Postemergence weed control under flooded paddy conditions; assay type: in vivo, Cyperus iria; conditions: postemergence weeds, rated 3 to 4 weeks after treatment
Method in brief: (§3)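 Weeds 3 to 5 cm tall and rice seedlings at the 1.5 to 2.5 leaf stage were flooded, with water held 1.5 to 3 cm above the soil. Compounds in 50/50 v/v aqueous/acetone went into the flood water at about 0.0313 to 0.500 kg/ha. Visual 0-9 ratings versus control were made 3 to 4 weeks later.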

[5] = system: CHEAL (Lambsquarters, Common); experiment: Preemergence herbicidal evaluation; assay type: in vivo, Chenopodium album; conditions: rated 4-5 weeks after treatment
Method in brief: as §2

[6] = system: CHEAL (Lambsquarters, Common); experiment: Postemergence herbicidal evaluation; assay type: in vivo, Chenopodium album
Method in brief: as §1

ECHCG (Barnyardgrass) [7] = experiment: Preemergence herbicidal evaluation; assay type: in vivo, Echinochloa crus-galli; conditions: rated 4-5 weeks after treatment
Method in brief: as §2

CASOB (Sicklepod) = experiment: Preemergence herbicidal evaluation; assay type: in vivo, Cassia obtusifolia; conditions: rated 4-5 weeks after treatment
Method in brief: as §2

[8] = system: IPOHE (Morningglory, Ivyleaf); experiment: Postemergence herbicidal evaluation; assay type: in vivo, Ipomoea hederacea
Method in brief: as §1

ZEAMX (Corn, Field) [9] = experiment: Postemergence herbicidal evaluation; assay type: in vivo, Zea mays
Method in brief: as §1

ZEAMX (Corn, Field) [10] = experiment: Preemergence herbicidal evaluation; assay type: in vivo, Zea mays; conditions: rated 4-5 weeks after treatment
Method in brief: as §2

ABUTH (Velvetleaf) [11] = experiment: Preemergence herbicidal evaluation; assay type: in vivo, Abutilon theophrasti; conditions: rated 4-5 weeks after treatment
Method in brief: as §2

SETVI (Foxtail, Green) = experiment: Postemergence herbicidal evaluation; assay type: in vivo, Setaria viridis
Method in brief: as §1

ORYSAT (Rice, Tebonnet) = experiment: Postemergence herbicidal evaluation; assay type: in vivo, Oryza sativa, (L.) Tebonnet
Method in brief: as §1

CYPSE (Flatsedge) = experiment: Postemergence weed control under flooded paddy conditions; assay type: in vivo, Cyperus serotinus; conditions: postemergence weeds, rated 3 to 4 weeks after treatment
Method in brief: as §3

ABUTH (Velvetleaf) [12] = experiment: Postemergence herbicidal evaluation; assay type: in vivo, Abutilon theophrasti
Method in brief: as §1

Cn1c(C(F)(F)F)cc(=O)n(-c2cc(/N=C3/SC(CC(=O)O)C(=O)N3CC(=O)O)c(Cl)cc2F)c1=O (centres unmarked) [Compound 61, 2-{{2-Chloro-5-[3,6-dihydro-3-methyl-2,6-dioxo-4-(trifluoromethyl)-1(2H)-pyrimidinyl]-4-fluorophenyl}imino}-4-oxo-3,5-thiazolidinediacetic acid]
Postemergence herbicidal rating ECHCG (ECHCG (Barnyardgrass) [1]; Rate 0.0158 kg/ha): 0.0
Postemergence herbicidal rating ECHCG (ECHCG (Barnyardgrass) [1]; Rate 0.0315 kg/ha): 0.0
Postemergence herbicidal rating ECHCG (ECHCG (Barnyardgrass) [1]; Rate 0.0630 kg/ha): 0.0
Preemergence herbicidal rating TRZAWR ([2]; rate 0.1250 kg/ha): 0.0
Preemergence herbicidal rating TRZAWR ([2]; rate 0.2500 kg/ha): 1.0
Preemergence herbicidal rating IPOHE ([3]; rate 0.1250 kg/ha): 0.0
Preemergence herbicidal rating IPOHE ([3]; rate 0.2500 kg/ha): 0.0
Preemergence herbicidal rating GLXMAW ([4]; rate 0.1250 kg/ha): 0.0
Preemergence herbicidal rating GLXMAW ([4]; rate 0.2500 kg/ha): 1.0
Herbicidal rating CYPIR (CYPIR (Rice Flatsedge); Rate 0.2500 kg/ha): 0.0
Preemergence herbicidal rating CHEAL ([5]; rate 0.1250 kg/ha): 7.0
Preemergence herbicidal rating CHEAL ([5]; rate 0.2500 kg/ha): 9.0
Postemergence herbicidal rating CHEAL ([6]; Rate 0.0158 kg/ha): 0.0
Postemergence herbicidal rating CHEAL ([6]; Rate 0.0315 kg/ha): 0.0
Postemergence herbicidal rating CHEAL ([6]; Rate 0.0630 kg/ha): 0.0
Preemergence herbicidal rating ECHCG (ECHCG (Barnyardgrass) [7]; rate 0.1250 kg/ha): 0.0
Preemergence herbicidal rating ECHCG (ECHCG (Barnyardgrass) [7]; rate 0.2500 kg/ha): 0.0
Preemergence herbicidal rating CASOB (CASOB (Sicklepod); rate 0.1250 kg/ha): 0.0
Preemergence herbicidal rating CASOB (CASOB (Sicklepod); rate 0.2500 kg/ha): 1.0
Postemergence herbicidal rating IPOHE ([8]; Rate 0.0158 kg/ha): 1.0
Postemergence herbicidal rating IPOHE ([8]; Rate 0.0315 kg/ha): 2.0
Postemergence herbicidal rating IPOHE ([8]; Rate 0.0630 kg/ha): 1.0
Postemergence herbicidal rating ZEAMX (ZEAMX (Corn, Field) [9]; Rate 0.0158 kg/ha): 2.0
Postemergence herbicidal rating ZEAMX (ZEAMX (Corn, Field) [9]; Rate 0.0315 kg/ha): 2.0
Postemergence herbicidal rating ZEAMX (ZEAMX (Corn, Field) [9]; Rate 0.0630 kg/ha): 3.0
Preemergence herbicidal rating ZEAMX (ZEAMX (Corn, Field) [10]; rate 0.1250 kg/ha): 0.0
Preemergence herbicidal rating ZEAMX (ZEAMX (Corn, Field) [10]; rate 0.2500 kg/ha): 1.0
Preemergence herbicidal rating ABUTH (ABUTH (Velvetleaf) [11]; rate 0.1250 kg/ha): 0.0
Preemergence herbicidal rating ABUTH (ABUTH (Velvetleaf) [11]; rate 0.2500 kg/ha): 1.0
Postemergence herbicidal rating SETVI (SETVI (Foxtail, Green); Rate 0.0158 kg/ha): 0.0
Postemergence herbicidal rating SETVI (SETVI (Foxtail, Green); Rate 0.0315 kg/ha): 0.0
Postemergence herbicidal rating SETVI (SETVI (Foxtail, Green); Rate 0.0630 kg/ha): 2.0
Postemergence herbicidal rating ORYSAT (ORYSAT (Rice, Tebonnet); Rate 0.0158 kg/ha): 0.5
Postemergence herbicidal rating ORYSAT (ORYSAT (Rice, Tebonnet); Rate 0.0315 kg/ha): 0.5
Postemergence herbicidal rating ORYSAT (ORYSAT (Rice, Tebonnet); Rate 0.0630 kg/ha): 1.5
Herbicidal rating CYPSE (CYPSE (Flatsedge); Rate 0.2500 kg/ha): 0.0
Postemergence herbicidal rating ABUTH (ABUTH (Velvetleaf) [12]; Rate 0.0158 kg/ha): 0.0
Postemergence herbicidal rating ABUTH (ABUTH (Velvetleaf) [12]; Rate 0.0315 kg/ha): 0.0
Postemergence herbicidal rating ABUTH (ABUTH (Velvetleaf) [12]; Rate 0.0630 kg/ha): 0.0

CN1C(=O)C(CC(=O)O)SC1=Nc1cc(-n2c(=O)cc(C(F)(F)F)n(C)c2=O)c(F)cc1Cl (centres unmarked) [Compound 63, 2-{{2-Chloro-5-[3,6-dihydro-3-methyl-2,6-dioxo-4-(trifluoromethyl)-1(2H)-pyrimidinyl]-4-fluoro-phenyl}imino}-3-methyl-4-oxo-5-thiazolidineacetic acid]
Postemergence herbicidal rating ECHCG (ECHCG (Barnyardgrass) [1]; Rate 0.0158 kg/ha): 2.0
Postemergence herbicidal rating ECHCG (ECHCG (Barnyardgrass) [1]; Rate 0.0315 kg/ha): 2.0
Postemergence herbicidal rating ECHCG (ECHCG (Barnyardgrass) [1]; Rate 0.0630 kg/ha): 6.0
Preemergence herbicidal rating TRZAWR ([2]; rate 0.0156 kg/ha): 0.0
Preemergence herbicidal rating TRZAWR ([2]; rate 0.0313 kg/ha): 0.0
Preemergence herbicidal rating TRZAWR ([2]; rate 0.0625 kg/ha): 1.0
Preemergence herbicidal rating TRZAWR ([2]; rate 0.1250 kg/ha): 6.0
Preemergence herbicidal rating TRZAWR ([2]; rate 0.2500 kg/ha): 7.0
Preemergence herbicidal rating IPOHE ([3]; rate 0.0156 kg/ha): 0.0
Preemergence herbicidal rating IPOHE ([3]; rate 0.0313 kg/ha): 1.0
Preemergence herbicidal rating IPOHE ([3]; rate 0.0625 kg/ha): 6.0
Preemergence herbicidal rating IPOHE ([3]; rate 0.1250 kg/ha): 7.0
Preemergence herbicidal rating IPOHE ([3]; rate 0.2500 kg/ha): 9.0
Preemergence herbicidal rating GLXMAW ([4]; rate 0.0156 kg/ha): 0.0
Preemergence herbicidal rating GLXMAW ([4]; rate 0.0313 kg/ha): 1.0
Preemergence herbicidal rating GLXMAW ([4]; rate 0.0625 kg/ha): 4.0
Preemergence herbicidal rating GLXMAW ([4]; rate 0.1250 kg/ha): 6.0
Preemergence herbicidal rating GLXMAW ([4]; rate 0.2500 kg/ha): 7.0
Herbicidal rating CYPIR (CYPIR (Rice Flatsedge); Rate 0.0313 kg/ha): 2.0
Herbicidal rating CYPIR (CYPIR (Rice Flatsedge); Rate 0.0625 kg/ha): 6.0
Herbicidal rating CYPIR (CYPIR (Rice Flatsedge); Rate 0.1250 kg/ha): 7.0
Herbicidal rating CYPIR (CYPIR (Rice Flatsedge); Rate 0.2500 kg/ha): 7.0
Preemergence herbicidal rating CHEAL ([5]; rate 0.0313 kg/ha): 7.0
Preemergence herbicidal rating CHEAL ([5]; rate 0.0625 kg/ha): 9.0
Preemergence herbicidal rating CHEAL ([5]; rate 0.1250 kg/ha): 9.0
Preemergence herbicidal rating CHEAL ([5]; rate 0.2500 kg/ha): 9.0
Postemergence herbicidal rating CHEAL ([6]; Rate 0.0158 kg/ha): 9.0
Postemergence herbicidal rating CHEAL ([6]; Rate 0.0315 kg/ha): 9.0
Postemergence herbicidal rating CHEAL ([6]; Rate 0.0630 kg/ha): 7.0
Preemergence herbicidal rating ECHCG (ECHCG (Barnyardgrass) [7]; rate 0.0156 kg/ha): 0.0
Preemergence herbicidal rating ECHCG (ECHCG (Barnyardgrass) [7]; rate 0.0313 kg/ha): 0.0
Preemergence herbicidal rating ECHCG (ECHCG (Barnyardgrass) [7]; rate 0.0625 kg/ha): 1.0
Preemergence herbicidal rating ECHCG (ECHCG (Barnyardgrass) [7]; rate 0.1250 kg/ha): 4.0
Preemergence herbicidal rating ECHCG (ECHCG (Barnyardgrass) [7]; rate 0.2500 kg/ha): 9.0
Preemergence herbicidal rating CASOB (CASOB (Sicklepod); rate 0.0156 kg/ha): 0.0
Preemergence herbicidal rating CASOB (CASOB (Sicklepod); rate 0.0313 kg/ha): 2.0
Preemergence herbicidal rating CASOB (CASOB (Sicklepod); rate 0.0625 kg/ha): 2.0
Preemergence herbicidal rating CASOB (CASOB (Sicklepod); rate 0.1250 kg/ha): 2.0
Preemergence herbicidal rating CASOB (CASOB (Sicklepod); rate 0.2500 kg/ha): 7.0
Postemergence herbicidal rating IPOHE ([8]; Rate 0.0158 kg/ha): 9.0
Postemergence herbicidal rating IPOHE ([8]; Rate 0.0315 kg/ha): 9.0
Postemergence herbicidal rating IPOHE ([8]; Rate 0.0630 kg/ha): 9.0
Postemergence herbicidal rating ZEAMX (ZEAMX (Corn, Field) [9]; Rate 0.0158 kg/ha): 7.0
Postemergence herbicidal rating ZEAMX (ZEAMX (Corn, Field) [9]; Rate 0.0315 kg/ha): 7.5
Postemergence herbicidal rating ZEAMX (ZEAMX (Corn, Field) [9]; Rate 0.0630 kg/ha): 7.5
Preemergence herbicidal rating ZEAMX (ZEAMX (Corn, Field) [10]; rate 0.0156 kg/ha): 0.0
Preemergence herbicidal rating ZEAMX (ZEAMX (Corn, Field) [10]; rate 0.0313 kg/ha): 1.0
Preemergence herbicidal rating ZEAMX (ZEAMX (Corn, Field) [10]; rate 0.0625 kg/ha): 2.0
Preemergence herbicidal rating ZEAMX (ZEAMX (Corn, Field) [10]; rate 0.1250 kg/ha): 6.0
Preemergence herbicidal rating ZEAMX (ZEAMX (Corn, Field) [10]; rate 0.2500 kg/ha): 7.0
Preemergence herbicidal rating ABUTH (ABUTH (Velvetleaf) [11]; rate 0.0156 kg/ha): 1.0
Preemergence herbicidal rating ABUTH (ABUTH (Velvetleaf) [11]; rate 0.0313 kg/ha): 6.0
Preemergence herbicidal rating ABUTH (ABUTH (Velvetleaf) [11]; rate 0.0625 kg/ha): 9.0
Preemergence herbicidal rating ABUTH (ABUTH (Velvetleaf) [11]; rate 0.1250 kg/ha): 9.0
Preemergence herbicidal rating ABUTH (ABUTH (Velvetleaf) [11]; rate 0.2500 kg/ha): 9.0
Postemergence herbicidal rating SETVI (SETVI (Foxtail, Green); Rate 0.0158 kg/ha): 9.0
Postemergence herbicidal rating SETVI (SETVI (Foxtail, Green); Rate 0.0315 kg/ha): 9.0
Postemergence herbicidal rating SETVI (SETVI (Foxtail, Green); Rate 0.0630 kg/ha): 9.0
Postemergence herbicidal rating ORYSAT (ORYSAT (Rice, Tebonnet); Rate 0.0158 kg/ha): 5.0
Postemergence herbicidal rating ORYSAT (ORYSAT (Rice, Tebonnet); Rate 0.0315 kg/ha): 5.0
Postemergence herbicidal rating ORYSAT (ORYSAT (Rice, Tebonnet); Rate 0.0630 kg/ha): 6.0
Herbicidal rating CYPSE (CYPSE (Flatsedge); Rate 0.0313 kg/ha): 0.0
Herbicidal rating CYPSE (CYPSE (Flatsedge); Rate 0.0625 kg/ha): 0.0
Herbicidal rating CYPSE (CYPSE (Flatsedge); Rate 0.1250 kg/ha): 0.0
Herbicidal rating CYPSE (CYPSE (Flatsedge); Rate 0.2500 kg/ha): 0.0
Postemergence herbicidal rating ABUTH (ABUTH (Velvetleaf) [12]; Rate 0.0158 kg/ha): 9.0
Postemergence herbicidal rating ABUTH (ABUTH (Velvetleaf) [12]; Rate 0.0315 kg/ha): 6.0
Postemergence herbicidal rating ABUTH (ABUTH (Velvetleaf) [12]; Rate 0.0630 kg/ha): 9.0
